Data: patent US20200339625A1, “NOVEL RADIOMETAL-BINDING COMPOUNDS FOR DIAGNOSIS OR TREATMENT OF PROSTATE SPECIFIC MEMBRANE ANTIGEN-EXPRESSING CANCER” (PROVINCIAL HEALTH SERVICES AUTHORITY, priority 2017, published 2020)

Test system: mice bearing PSMA-expressing LNCAP cancer xenografts
Assay: Biodistribution of 68Ga-labeled compounds
Type: in vivo
Protocol: Imaging and biodistribution experiments were performed using NODSCID 1L2RyKO male mice. Mice were anesthetized by inhalation with 2% isoflurane in oxygen, and implanted subcutaneously with 1×10^7 LNCaP cells behind left shoulder. Mice were imaged or used in biodistribution studies when the tumor grew up to reach 5-8 mm in diameter during 5-6 weeks.
For biodistribution studies, the mice were injected with the radiotracer as described above. At predetermined time points (1 or 3 h), the mice was anesthetized with 2% isoflurane inhalation, and euthanized by CO2 inhalation. Blood was withdrawn immediately from the heart, and the organs/tissues of interest were collected. The collected organs/tissues were weighed and counted using an automatic gamma counter. The uptake in each organ/tissue was normalized to the injected dose using a standard curve, and expressed as the percentage of the injected dose per gram of tissue (% ID/g).

Compound `O=C([O-])CN1CCN(CC(=O)[O-])CCN(CC(=O)NCCCC[C@H](NC(=O)CNC(=O)CCCc2ccc(I)cc2)C(=O)NC[C@H]2CC[C@H](C(=O)N[C@@H](Cc3ccc4ccccc4c3)C(=O)NCCCC[C@H](NC(=O)N[C@@H](CCC(=O)O)C(=O)O)C(=O)O)CC2)CCN(CC(=O)[O-])CC1.[68Ga+3]` [^68Ga-HTK03024] has an Adrenal glands uptake (1 h post-injection) of 4.32 ± 0.25 % ID/g, a Blood uptake (1 h post-injection) of 27.0 ± 5.63 % ID/g and a Bone uptake (1 h post-injection) of 1.26 ± 0.08 % ID/g. The Brain uptake (1 h post-injection) was 0.31 ± 0.04 % ID/g, the Fat uptake (1 h post-injection) was 1.83 ± 0.44 % ID/g and the Heart uptake (1 h post-injection) was 6.53 ± 1.30 % ID/g. It also gave an Intestine uptake (1 h post-injection) of 1.86 ± 0.06 % ID/g, a Kidneys uptake (1 h post-injection) of 9.11 ± 1.06 % ID/g and a Lacrimal uptake (1 h post-injection) of 0.93 ± 0.36 % ID/g. For the same compound, the Liver uptake (1 h post-injection) was 3.71 ± 0.38 % ID/g, the Lungs uptake (1 h post-injection) was 9.51 ± 0.55 % ID/g and the Muscle uptake (1 h post-injection) was 1.10 ± 0.18 % ID/g. It also gave a Pancreas uptake (1 h post-injection) of 1.86 ± 0.04 % ID/g, a Salivary uptake (1 h post-injection) of 3.31 ± 0.79 % ID/g and a Seminal uptake (1 h post-injection) of 1.27 ± 0.18 % ID/g. For the same compound, the Spleen uptake (1 h post-injection) was 2.72 ± 0.69 % ID/g, the Stomach uptake (1 h post-injection) was 0.64 ± 0.05 % ID/g and the Tail uptake (1 h post-injection) was 7.58 ± 4.49 % ID/g. The Testes uptake (1 h post-injection) was 2.98 ± 0.30 % ID/g, the Thyroid uptake (1 h post-injection) was 4.39 ± 0.01 % ID/g and the Tumor uptake (1 h post-injection) was 7.34 ± 0.10 % ID/g. The “Tumor:Blood ratio” value (1 h post-injection) was 0.28 ± 0.05, the “Tumor:Muscle ratio” value (1 h post-injection) was 6.74 ± 1.00 and the “Tumor:kidney ratio” value (1 h post-injection) was 0.81 ± 0.11. The Urine uptake (1 h post-injection) was 1.48 ± 0.71 % ID/g, the Adrenal glands uptake (3 h post-injection) was 6.37 ± 1.54 % ID/g and the Blood uptake (3 h post-injection) was 23.9 ± 1.03 % ID/g. The Bone uptake (3 h post-injection) was 1.66 ± 0.39 % ID/g, the Brain uptake (3 h post-injection) was 0.34 ± 0.02 % ID/g and the Fat uptake (3 h post-injection) was 3.53 ± 1.48 % ID/g. It also gave a Heart uptake (3 h post-injection) of 5.56 ± 0.43 % ID/g, an Intestine uptake (3 h post-injection) of 1.66 ± 0.14 % ID/g and a Kidneys uptake (3 h post-injection) of 12.3 ± 0.86 % ID/g. It also gave a Lacrimal uptake (3 h post-injection) of 3.57 ± 1.56 % ID/g, a Liver uptake (3 h post-injection) of 3.86 ± 0.63 % ID/g and a Lungs uptake (3 h post-injection) of 11.6 ± 0.82 % ID/g. The Muscle uptake (3 h post-injection) was 1.55 ± 0.15 % ID/g, the Pancreas uptake (3 h post-injection) was 1.86 ± 0.20 % ID/g and the Salivary uptake (3 h post-injection) was 4.66 ± 0.58 % ID/g. It also gave a Seminal uptake (3 h post-injection) of 1.63 ± 0.13 % ID/g, a Spleen uptake (3 h post-injection) of 2.62 ± 0.93 % ID/g and a Stomach uptake (3 h post-injection) of 0.70 ± 0.10 % ID/g. The Tail uptake (3 h post-injection) was 4.03 ± 0.43 % ID/g, the Testes uptake (3 h post-injection) was 3.07 ± 0.20 % ID/g and the Thyroid uptake (3 h post-injection) was 4.19 ± 0.48 % ID/g. For the same compound, the Tumor uptake (3 h post-injection) was 15.0 ± 2.19 % ID/g, the “Tumor:Blood ratio” value (3 h post-injection) was 0.63 ± 0.11 and the “Tumor:Muscle ratio” value (3 h post-injection) was 9.69 ± 1.51. For the same compound, the “Tumor:kidney ratio” value (3 h post-injection) was 1.21 ± 0.10 and the Urine uptake (3 h post-injection) was 3.68 ± 1.74 % ID/g.

In the case of `Nc1ccc(CCCC(=O)NCC(=O)N[C@@H](CCCCNC(=O)CN2CCN(CC(=O)[O-])CCN(CC(=O)[O-])CCN(CC(=O)[O-])CC2)C(=O)NC[C@H]2CC[C@H](C(=O)N[C@@H](Cc3ccc4ccccc4c3)C(=O)NCCCC[C@H](NC(=O)N[C@@H](CCC(=O)O)C(=O)O)C(=O)O)CC2)cc1.[68Ga+3]` [^68Ga-HTK03087], the Adrenal glands uptake (1 h post-injection) is reported as 2.95 ± 0.92 % ID/g, the Blood uptake (1 h post-injection) is reported as 1.74 ± 0.11 % ID/g and the Bone uptake (1 h post-injection) is reported as 0.16 ± 0.02 % ID/g. It also gave a Brain uptake (1 h post-injection) of 0.04 ± 0.01 % ID/g, a Fat uptake (1 h post-injection) of 0.77 ± 0.14 % ID/g and a Heart uptake (1 h post-injection) of 0.52 ± 0.07 % ID/g. For the same compound, the Intestine uptake (1 h post-injection) was 0.32 ± 0.06 % ID/g, the Kidneys uptake (1 h post-injection) was 102 ± 8.91 % ID/g and the Lacrimal uptake (1 h post-injection) was 0.06 ± 0.05 % ID/g. For the same compound, the Liver uptake (1 h post-injection) was 0.44 ± 0.06 % ID/g, the Lungs uptake (1 h post-injection) was 1.75 ± 0.09 % ID/g and the Muscle uptake (1 h post-injection) was 0.31 ± 0.05 % ID/g. It also gave a Pancreas uptake (1 h post-injection) of 0.45 ± 0.02 % ID/g, a Salivary uptake (1 h post-injection) of 1.76 ± 0.16 % ID/g and a Seminal uptake (1 h post-injection) of 2.40 ± 2.83 % ID/g. It also gave a Spleen uptake (1 h post-injection) of 2.42 ± 0.79 % ID/g, a Stomach uptake (1 h post-injection) of 0.14 ± 0.05 % ID/g and a Tail uptake (1 h post-injection) of 0.91 ± 0.12 % ID/g. The Testes uptake (1 h post-injection) was 0.48 ± 0.06 % ID/g, the Thyroid uptake (1 h post-injection) was 0.74 ± 0.04 % ID/g and the Tumor uptake (1 h post-injection) was 20.7 ± 3.79 % ID/g. The “Tumor:Blood ratio” value (1 h post-injection) was 11.9 ± 1.92, the “Tumor:Muscle ratio” value (1 h post-injection) was 66.6 ± 9.63 and the “Tumor:kidney ratio” value (1 h post-injection) was 0.20 ± 0.02. The Urine uptake (1 h post-injection) was 196 ± 50.9 % ID/g, the Adrenal glands uptake (3 h post-injection) was 0.90 ± 0.36 % ID/g and the Blood uptake (3 h post-injection) was 0.52 ± 0.08 % ID/g. It also gave a Bone uptake (3 h post-injection) of 0.03 ± 0.03 % ID/g, a Brain uptake (3 h post-injection) of 0.01 ± 0.00 % ID/g and a Fat uptake (3 h post-injection) of 0.40 ± 0.11 % ID/g. For the same compound, the Heart uptake (3 h post-injection) was 0.16 ± 0.03 % ID/g, the Intestine uptake (3 h post-injection) was 0.23 ± 0.10 % ID/g and the Kidneys uptake (3 h post-injection) was 56.1 ± 20.3 % ID/g. It also gave a Lacrimal uptake (3 h post-injection) of 0.00 ± 0.00 % ID/g, a Liver uptake (3 h post-injection) of 0.31 ± 0.19 % ID/g and a Lungs uptake (3 h post-injection) of 0.53 ± 0.12 % ID/g. For the same compound, the Muscle uptake (3 h post-injection) was 0.08 ± 0.02 % ID/g, the Pancreas uptake (3 h post-injection) was 0.14 ± 0.03 % ID/g and the Salivary uptake (3 h post-injection) was 0.47 ± 0.07 % ID/g. It also gave a Seminal uptake (3 h post-injection) of 1.44 ± 3.04 % ID/g, a Spleen uptake (3 h post-injection) of 0.80 ± 0.31 % ID/g and a Stomach uptake (3 h post-injection) of 0.07 ± 0.04 % ID/g. It also gave a Tail uptake (3 h post-injection) of 0.27 ± 0.05 % ID/g, a Testes uptake (3 h post-injection) of 0.17 ± 0.05 % ID/g and a Thyroid uptake (3 h post-injection) of 0.24 ± 0.05 % ID/g. For the same compound, the Tumor uptake (3 h post-injection) was 20.4 ± 5.92 % ID/g, the “Tumor:Blood ratio” value (3 h post-injection) was 39.2 ± 8.42 and the “Tumor:Muscle ratio” value (3 h post-injection) was 254 ± 88.9. The “Tumor:kidney ratio” value (3 h post-injection) was 0.40 ± 0.16 and the Urine uptake (3 h post-injection) was 339 ± 355 % ID/g.
